Measurements as given in patent US7473711B2, “Androgen modulators” (Pfizer Inc., priority 2004, dated 2009).
Residue numbers refer to the chain shown, from its start. Where two headings read alike, the source gives them in different places.

Columns and labels:
[1] = molecular target: T1, hAR (human androgen receptor) (Homo sapiens, UniProt P10275); test: Competitive binding analysis on hAR extracts with 3H-DHT tracer
T1 construct: made in house; host or cells: baculovirus/Sf9 insect cells (extract)
T1 sequence (P10275 1-920): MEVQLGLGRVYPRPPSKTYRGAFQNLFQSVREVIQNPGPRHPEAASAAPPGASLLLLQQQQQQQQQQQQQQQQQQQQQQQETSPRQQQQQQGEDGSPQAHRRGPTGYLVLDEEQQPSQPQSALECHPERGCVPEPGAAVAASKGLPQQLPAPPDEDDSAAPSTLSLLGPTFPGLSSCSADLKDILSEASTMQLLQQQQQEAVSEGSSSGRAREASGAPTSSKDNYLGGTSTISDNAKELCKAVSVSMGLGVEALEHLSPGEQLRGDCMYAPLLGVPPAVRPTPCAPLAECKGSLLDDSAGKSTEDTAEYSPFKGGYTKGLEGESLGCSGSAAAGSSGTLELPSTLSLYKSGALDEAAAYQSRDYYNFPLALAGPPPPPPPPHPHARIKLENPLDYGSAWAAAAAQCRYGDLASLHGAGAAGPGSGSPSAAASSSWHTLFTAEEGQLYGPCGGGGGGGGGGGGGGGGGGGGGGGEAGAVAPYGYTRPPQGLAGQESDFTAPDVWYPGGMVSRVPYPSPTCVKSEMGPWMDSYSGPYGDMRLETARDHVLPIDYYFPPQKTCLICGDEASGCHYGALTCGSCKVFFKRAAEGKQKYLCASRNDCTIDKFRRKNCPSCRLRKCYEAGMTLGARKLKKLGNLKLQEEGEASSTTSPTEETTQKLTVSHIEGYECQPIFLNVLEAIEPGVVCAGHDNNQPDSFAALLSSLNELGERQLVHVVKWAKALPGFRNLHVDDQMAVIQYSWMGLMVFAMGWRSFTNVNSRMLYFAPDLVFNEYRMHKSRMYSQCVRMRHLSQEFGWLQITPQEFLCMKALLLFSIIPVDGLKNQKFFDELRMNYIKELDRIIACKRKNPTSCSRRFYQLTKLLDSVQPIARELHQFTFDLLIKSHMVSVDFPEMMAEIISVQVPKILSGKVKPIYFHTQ
Method: The compounds of Formula I have affinity for the androgen receptor. […] The description below describes how the assay was carried out.
Competitive binding analysis was performed on baculovirus/Sf9 generated hAR extracts in the presence or absence of different concentrations of test agent and a fixed concentration of ^3H-dihydrotestosterone (^3H-DHT) as tracer. This binding assay method is a modification of a protocol previously described (Liao S., et. al. J. Steroid Biochem. 20:11-17 1984). Briefly, progressively decreasing concentrations of compounds are incubated in the presence of hAR extract (Chang et al. P.N.A.S. Vol. 89, pp. […], 1992), hydroxylapatite, and 1 nM ^3H-DHT for one hour at 4° C. Subsequently, the binding reactions are washed three times to completely remove excess unbound ^3H-DHT. hAR bound ^3H-DHT levels are determined in the presence of compounds (i.e. competitive binding) and compared to levels bound when no competitor is present (i.e. maximum binding). Compound binding affinity to the hAR is expressed as the concentration of compound at which one half of the maximum binding is inhibited. Table II below provides the results that were obtained for selected compounds (reported data is the mean of multiple tests as shown below)

[2] = molecular target: T2, androgen receptor in MDA-MB453-MMTV clone 54-19 cells (Homo sapiens, UniProt P10275); test: AR antagonist cell assay (MMTV-luciferase reporter, 100 pM DHT); assay type: cell-based
T2 sequence (P10275 1-920 Q868H): T1 sequence (P10275 1-920) with Q868H
Method: The compounds ability to antagonize the effects of androgen on the androgen receptor were determined in a whole cell assay as described immediately below.
Experimental Procedure for AR Antagonist Cell Assay
Cell line: MDA-MB453-MMTV clone 54-19. This cell line is a stable transfected cell line with MDA-MB453 cell background (a human breast tumor cell line expressing androgen receptor). A MMTV minimal promoter containing ARE was first cloned in front of a firefly luciferase reporter gene. Then the cascade was cloned into transfection vector pUV120puro. Electroporation method was used for transfecting MDA-MB-453 cell. Puromycin resistant stable cell line was selected. Cell Culture Media and Reagents:
Culture medium: DMEM (high glucose, Gibco cat #: 11960-044), 10% FBS, and 1% L-glutamine
Plating medium: DMEM (phenol red free), 10% charcoal treated HyClone serum, 1% L-glutamine
Assay medium: DMEM (phenol red free), 1% charcoal treated HyClone serum, 1% L-glutamine, and 1% penicillin/streptomycin
3X luciferase buffer: 2% beta-mercaptoethanol, 0.6% ATP, 0.0135% luciferine in cell lysis buffer
• 1. Cells are maintained in culture medium, splitting cells when they reach 80-90% confluence • 2. To test compounds, 10,000 cells/well are plated to opaque 96 cell culture plate in 100 ul/well plating medium, culture for overnight at 37° C. in cell culture incubator • 3. Carefully remove plating medium, then add 80 ul/well of pre-warmed assay medium, add 10 ul/well testing compound (final concentration at) 1000 nM, 200 nM, 40 nM, 8 nM, 1.6 nM, and 0.32 nM), incubate at 37° C. for 30 minutes • 4. Add 10 ul/well freshly prepared DHT (final concentration at 100 pM) to each well, incubate at 37° C. for 17 hr (overnight) • 5. Add 50 ul/well 3X luciferase buffer, incubate at room temperature for 5 minutes, then count on Luminometer
The fold induction over background by 100 pM DHT in the absence of testing compounds is standardized as 100% and experimental result is expressed as percentage of inhibition by testing compounds.
The results are reported as the mean of multiple tests as described below (the numbers of tests are indicated in the footnote). N.D. denotes that the compound was not tested.

[3] = MDA-MB453-MMTV clone 54-19, inhibition of 100 pM DHT induced luciferase, 17 hr; mean of multiple tests; read-out: AR Cell IC50
[4] = baculovirus/Sf9 hAR extract, 1 nM 3H-DHT, one hour at 4° C, mean of multiple tests, read-out: AR Binding IC50
[5] = read-out: AR Cell IC50; MDA-MB453-MMTV clone 54-19, inhibition of 100 pM DHT induced luciferase, 17 hr; mean of multiple tests

With C[C@@H](C[C@H](C)Oc1ccc(C#N)c(C(F)(F)F)c1)Oc1ccc(C#N)c(C(F)(F)F)c1 (stereo in doubt) [Example 20, 4,4′-[(2S,4S)-Pentane-2,4-diylbis(oxy)]bis[2-(trifluoromethyl)benzonitrile]] the IC50 [1] was 17 nM and the IC50 [2, 3] was 159 nM.

For CC(CCC(C)Oc1ccc(C#N)c(C(F)(F)F)c1)Oc1ccc(C#N)c(C(F)(F)F)c1 (stereo in doubt) [Example 23, 4,4′-[(2S,5S)-Hexane-2,5-diylbis(oxy)]bis[2-(trifluoromethyl)benzonitrile]], the IC50 [1, 4] was 180 nM and the IC50 [2, 3] was 202 nM.

Compound C[C@H](Oc1ccc(C#N)c(C(F)(F)F)c1)[C@H](C)Oc1ccc(C#N)c(C(F)(F)F)c1 [Example 1, 4,4′-[(2S,3S)-Butane-2,3-diylbis(oxy)]bis[2-(trifluoromethyl)benzonitrile]] has an IC50 [1, 4] of 191 nM and an IC50 [2, 3] of 531 nM.

C[C@@H](Oc1ccc(C#N)c(C(F)(F)F)c1)[C@@H](C)Oc1ccc(C#N)c(C(F)(F)F)c1 [Example 2, 4,4′-[(2R,3R)-Butane-2,3-diylbis(oxy)]bis[2-(trifluoromethyl)benzonitrile]] gave an IC50 [1] of 34 nM and an IC50 [2, 5] of 67 nM.

With C=CC(COc1ccc(C#N)c(C(F)(F)F)c1)Oc1ccc(C#N)c(C(F)(F)F)c1 (centres unmarked) [Example 3, 4,4′-[But-1-ene-3,4-diylbis(oxy)]bis[2-(trifluoromethyl)benzonitrile]] the IC50 [1, 4] was 115 nM and the IC50 [2, 3] was 457 nM.

Compound CCCC(COc1ccc(C#N)c(C(F)(F)F)c1)Oc1ccc(C#N)c(C(F)(F)F)c1 (centres unmarked) [Example 4, 4,4′-[Pentane-1,2-diylbis(oxy)]bis[2-(trifluoromethyl)benzonitrile]] has an IC50 [1, 4] of 630 nM and an IC50 [2, 3] of over 1000 nM.

COCC(COc1ccc(C#N)c(C(F)(F)F)c1)Oc1ccc(C#N)c(C(F)(F)F)c1 (centres unmarked) [Example 5, 4,4′-[(3-Methoxypropane-1,2-diyl)bis(oxy)]bis[2-(trifluoromethyl)benzonitrile]] was tested, and the IC50 [1] was 56 nM and the IC50 [2, 3] was 187 nM.

In the case of CCOCC(COc1ccc(C#N)c(C(F)(F)F)c1)Oc1ccc(C#N)c(C(F)(F)F)c1 (centres unmarked) [Example 6, 4,4′-[(3-Ethoxypropane-1,2-diyl)bis(oxy)]bis[2-(trifluoromethyl)benzonitrile]], the IC50 [1, 4] is reported as 124 nM and the IC50 [2, 3] is reported as over 1000 nM.

CC(C)NCC(COc1ccc(C#N)c(C(F)(F)F)c1)Oc1ccc(C#N)c(C(F)(F)F)c1 (centres unmarked) [Example 7] gave an IC50 [1, 4] of 319 nM and an IC50 [2, 3] of over 1000 nM.

CC(C)CCCC(COc1ccc(C#N)c(C(F)(F)F)c1)Oc1ccc(C#N)c(C(F)(F)F)c1 (centres unmarked) [Example 8] was tested, and the IC50 [1, 4] was 967 nM and the IC50 [2, 3] was over 1000 nM.

Work on CCCCCCC(COc1ccc(C#N)c(C(F)(F)F)c1)Oc1ccc(C#N)c(C(F)(F)F)c1 (centres unmarked) [Example 9, 4,4′-[Octane-1,2-diylbis(oxy)]bis[2-(trifluoromethyl)benzonitrile]] yielded an IC50 [1, 4] of 109 nM and an IC50 [2, 3] of 531 nM.

With CC1(C)CC1(COc1ccc(C#N)c(C(F)(F)F)c1)Oc1ccc(C#N)c(C(F)(F)F)c1 (centres unmarked) [Example 10, 4-[1-(4-Cyano-3-trifluoromethyl-phenoxymethyl)-2,2-dimethyl-cyclopropoxy]-2-trifluoromethyl-benzonitrile] the IC50 [1, 4] was 174 nM and the IC50 [2, 3] was 447 nM.

For N#Cc1ccc(OCCCOc2ccc(C#N)c(C(F)(F)F)c2)cc1C(F)(F)F [Example 11, 4,4′-[Propane-1,3-diylbis(oxy)]bis[2-(trifluoromethyl)benzonitrile]], the IC50 [1, 4] was 165 nM and the IC50 [2, 3] was over 1000 nM.

With CC(COc1ccc(C#N)c(C(F)(F)F)c1)COc1ccc(C#N)c(C(F)(F)F)c1 [Example 12, 4,4′-[(2-Methylpropane-1,3-diyl)bis(oxy)]bis[2-(trifluoromethyl)benzonitrile]] the IC50 [1, 4] was 233 nM and the IC50 [2, 3] was over 1000 nM.

CC(CCOc1ccc(C#N)c(C(F)(F)F)c1)Oc1ccc(C#N)c(C(F)(F)F)c1 (centres unmarked) [Example 13, 4,4′-[Butane-1,3-diylbis(oxy)]bis[2-(trifluoromethyl)benzonitrile]] gave an IC50 [1] of 10 nM and an IC50 [2, 5] of 100 nM.

Compound C[C@H](CCOc1ccc(C#N)c(C(F)(F)F)c1)Oc1ccc(C#N)c(C(F)(F)F)c1 [Example 14, 4-({(3R)-3-[4-Cyano-3-(trifluoromethyl)phenoxy]butyl}oxy)-2-(trifluoromethyl)benzonitrile] has an IC50 [1, 4] of 281 nM and an IC50 [2, 3] of 905 nM.

With C[C@@H](CCOc1ccc(C#N)c(C(F)(F)F)c1)Oc1ccc(C#N)c(C(F)(F)F)c1 [Example 15, 4-({(3S)-3-[4-Cyano-3-(trifluoromethyl)phenoxy]butyl}oxy)-2-(trifluoromethyl)benzonitrile] the IC50 [1] was 49 nM and the IC50 [2, 3] was 257 nM.

Work on CC(COc1ccc(C#N)c(C(F)(F)F)c1)C(C)Oc1ccc(C#N)c(C(F)(F)F)c1 (centres unmarked) [Example 16, 4-{3-[4-Cyano-3-(trifluoromethyl)phenoxy]-1,2-dimethylpropoxy}-2-(trifluoromethyl)benzonitrile] yielded an IC50 [1, 4] of 372 nM.
